Among the data in patent US6861428B2, “Water-soluble phenylpyridazine compounds and compositions containing the same” (Kowa Co., Ltd., priority 2001, dated 2005) are IC50 and melting point values, retold here.

SMILES strings stand for the structures. Structures can show the parent of a compound that is named as a salt.

The first data set has as its system interleukin-1β production. The experiment in a line: Inhibitory activity against interleukin-1β production (LPS-stimulated HL-60 cells, ELISA). It is filed as cell-based. To be noted: Homo sapiens, 72 h, lipopolysaccharide 10 μg/mL, 3 days, Table 1, read-out: IL-1β production inhibiting activity IC50. The procedure:
Inhibitory Activity Against Interleukin-1β Production
HL-60 cells were cultured for 4 days until confluence on RPMI 1640 medium with 10% fetal bovine serum (FBS) added thereto. The medium was centrifuged. The supernatant was discarded, and the cells were then suspended at 1×10^6 cells/mL on RPMI 1640 medium with 3% FBS, and lipopolysaccharide was added to give a final concentration of 10 μg/mL. The culture was inoculated at 1 mL/well to a 24-well plate. A sample compound was added at 1 μL/well, followed by culturing for 3 days. Three days later, the amount of interleukin-1β in each culture was determined by ELISA. Each IC50 value was determined by a comparison in yield with a control to which no test sample was added.
(In general: An ELISA detects its analyte on a solid surface through an enzyme-linked reagent.)
A word on the IC50: it is the concentration that gives 50% inhibition. `Cc1ccc(-c2cc(CN(C)C)c(=O)n(CC(C)C)n2)cc1F.Cl` [Example 8, 4-dimethylaminomethyl-6-(3-fluoro-4-methylphenyl)-2-isobutyl-2H-pyridazin-3-one hydrochloride]: the IC50 is 3.45 µM.
The same measure, in the same setting: the figure for `CSc1ccc(-c2cc(CN(C)C)c(=O)n(CC(C)C)n2)cc1.Cl` [Example 161, 4-dimethylaminomethyl-2-isobutyl-6-[4-(methylthio)phenyl]-2H-pyridazin-3-one hydrochloride] is 2.78 µM; for `C#CCNCc1cc(-c2ccc(SC)cc2)nn(CC(C)C)c1=O.Cl` [Example 163, 2-isobutyl-6-[4-(methylthio)phenyl]-4-propargylaminomethyl-2H-pyridazin-3-one hydrochloride] it is 2.78 µM.
Same read-out and setting: the figure for `COc1ccc(-c2cc(CN3CCN(C)CC3)c(=O)n(Cc3ccc(F)cc3)n2)cc1F` [Example 189, 2-(4-fluorobenzyl)-6-(3-fluoro-4-methoxyphenyl)-4-(4-methyl-1-piperazinyl)methyl-2H-pyridazin-3-one] is 0.87 µM; for `COc1ccc(-c2cc(CN3CCNCC3)c(=O)n(Cc3ccc(F)cc3)n2)cc1F` [Example 192, 2-(4-fluorobenzyl)-6-(3-fluoro-4-methoxyphenyl)-4-(1-piperazinyl)methyl-2H-pyridazin-3-one] it is 0.64 µM.
On the same count and under the same terms, next, `COc1ccc(-c2cc(CCCN3CCNCC3)c(=O)n(CC3CC3)n2)cc1F` [Example 213, 2-cyclopropylmethyl-6-(3-fluoro-4-methoxyphenyl)-4-[3-(1-piperazinyl)propyl]-2H-pyridazin-3-one]: 0.24 µM; `COc1ccc(-c2cc(CCCN)c(=O)n(CC3CC3)n2)cc1F` [Example 216, 4-(3-aminopropyl)-2-cyclopropylmethyl-6-(3-fluoro-4-methoxyphenyl)-2H-pyridazin-3-one]: 1.14 µM.

Staying with this data set, now noted: Homo sapiens, 72 h, lipopolysaccharide 10 μg/mL, 3 days, Table 2, read-out: IL-1β production inhibiting activity IC50.
Regarding `COc1ccc(-c2cc(CN3CCN(C)CC3)c(=O)n(Cc3ccc(F)c(F)c3)n2)cc1F` [Example 207, 2-(3,4-difluorobenzyl)-6-(3-fluoro-4-methoxyphenyl)-4-(4-methyl-1-piperazinyl)methyl-2H-pyridazin-3-one], the half-maximal inhibitory concentration (IC50) is 2.7 µM.
In the case of `COc1ccc(-c2cc(CN3CCN(CCO)CC3)c(=O)n(CC=Cc3ccc(Cl)cc3)n2)cc1F` [Example 210, 2-(4-chlorocinnamyl)-6-(3-fluoro-4-methoxyphenyl)-4-[4-(2-hydroxyethyl)-1-piperazinyl]methyl-2H-pyridazin-3-one], the IC50 was 3.1 µM.
For `Cc1cc(-c2cc(CN3CCN(C)CC3)c(=O)n(CCCc3ccc(Cl)cc3)n2)ccc1F` [Example 218, 2-[3-(4-chlorophenyl)propyl]-6-(4-fluoro-3-methylphenyl)-4-(4-methyl-1-piperazinyl)methyl-2H-pyridazin-3-one], the IC50 was determined as 6.8 µM.
Take `Cc1cc(-c2cc(CN3CCN(C)CC3)c(=O)n(CCc3ccc(Cl)cc3)n2)ccc1F` [Example 230, 2-[2-(4-chlorophenyl)ethyl]-6-(4-fluoro-3-methylphenyl)-4-(4-methyl-1-piperazinyl)methyl-2H-pyridazin-3-one]: the 50% inhibitory concentration (IC50) was found to be 4 µM.
The same measure, in the same setting: next, `Cc1cc(-c2cc(CN3CCN(C)CC3)c(=O)n(Cc3c(Cl)cccc3Cl)n2)ccc1F` [Example 231, 2-(2,6-dichlorobenzyl)-6-(4-fluoro-3-methylphenyl)-4-(4-methyl-1-piperazinyl)methyl-2H-pyridazin-3-one]: 5.7 µM; `COc1ccc(-c2cc(CN3CCN(C)CC3)c(=O)n(CCCc3ccccc3Cl)n2)cc1F` [Example 241, 2-[3-(2-chlorophenyl)propyl]-6-(3-fluoro-4-methoxyphenyl)-4-(4-methyl-1-piperazinyl)methyl-2H-pyridazin-3-one]: 6.4 µM.
On to `COc1ccc(-c2cc(CN3CCN(C)CC3)c(=O)n(CCCc3ccc(Cl)cc3)n2)cc1F` [Example 242, 2-[3-(4-chlorophenyl)propyl]-6-(3-fluoro-4-methoxyphenyl)-4-(4-methyl-1-piperazinyl)methyl-2H-pyridazin-3-one], for which the half-inhibitory concentration (IC50) came out at 7.7 µM.

Still in this data set, the particulars now being: lipopolysaccharide 10 μg/mL, 3 days, Table 1, read-out: IL-1β production inhibiting activity IC50.
On to `Cc1ccc(-c2cc(CN(CCO)CCO)c(=O)n(CC(C)C)n2)cc1` [Example 49, 4-N,N-bis(2-hydroxyethyl)aminomethyl-6-(4-methylphenyl)-2-isobutyl-2H-pyridazin-3-one hydrochloride], for which the IC50 is 3.53 µM.

Test system in the next data set: not given
Experiment: not given
Conditions: not given
The term melting point denotes the temperature of the solid-liquid transition. Regarding `Cc1cc(-c2cc(CN(C)C)c(=O)n(CC=Cc3ccccc3)n2)ccc1F.Cl`, the melting point fell in the range of 183.6 to 184.5 °C.
Compound `Cc1cc(-c2nn(CC=Cc3ccc(Cl)cc3)c(=O)c(N(C)C)c2C)ccc1F.Cl` had a melting point of 201.3 to 201.9 °C.
Compound `CC(C)Cn1nc(-c2ccc(S(C)(=O)=O)cc2)cc(CN2CCNCC2)c1=O.Cl.Cl` had a melting point of 222.4 to 224.2 °C.
Same read-out and setting: next, `Cc1cc(-c2cc(CN3CCN(C)CC3)c(=O)n(Cc3ccc(Cl)cc3)n2)ccc1F.Cl.Cl`: 246.4 to 249.7 °C (dec.); `Cc1cc(-c2cc(CN3CCN(C)CC3)c(=O)n(Cc3ccccc3Cl)n2)ccc1F.Cl.Cl`: 191 to 202 °C (dec.).
Still for that read-out and setting: the figure for `COc1ccc(-c2cc(CN(C)C)c(=O)n(CC(C)C)n2)cc1F.Cl` is 212.4 to 212.8 °C; for `Cc1c(-c2ccc(C(F)(F)F)cc2)nn(CC(C)C)c(=O)c1N1CCN(C)CC1.Cl.Cl` it is 249.9 to 252.8 °C.
The same measure, in the same setting: next, `CC(C)Cn1nc(-c2ccc(-c3ccccc3)cc2)cc(CN2CCNCC2)c1=O.Cl.Cl`: 226.8 to 228 °C; `COc1ccc(-c2cc(CN3CCNCC3)c(=O)n(CC(C)C)n2)cc1Cl.Cl.Cl`: 203.6 to 204.5 °C.
In turn, `Cc1ccc(-c2cc(CN(C)C)c(=O)n(CC(C)C)n2)cc1F.Cl` [Example 8, 4-dimethylaminomethyl-6-(3-fluoro-4-methylphenyl)-2-isobutyl-2H-pyridazin-3-one hydrochloride] yielded a melting point of 246.5 to 248.5 °C.
In the case of `COc1ccc(-c2cc(CN3CCNCC3)c(=O)n(CC3CC3)n2)cc1F` [Example 20, 2-cyclopropylmethyl-6-(3-fluoro-4-methoxyphenyl)-4-(1-piperazinyl)methyl-2H-pyridazin-3-one], the melting point was in the range of 111.5 to 118 °C.
Compound `Cc1ccc(-c2cc(CN)c(=O)n(CC(C)C)n2)cc1` [Example 50, 4-aminomethyl-2-isobutyl-6-(4-methylphenyl)-2H-pyridazin-3-one] returned a melting point of 74.9 to 77.9 °C.
Still for that read-out and setting: next, `Cc1ccc(-c2nn(CC(C)C)c(=O)c(NC(CO)CO)c2C)cc1` [Example 52, 4-(1,3-dihydroxypropan-2-yl)amino-methyl-2-isobutyl-6-(4-methylphenyl)-2H-pyridazin-3-one]: 134.1 to 135.2 °C; `CSc1ccc(-c2nn(CC3CC3)c(=O)c(N(C)C)c2C)cc1.Cl` [Example 153, 2-cyclopropylmethyl-4-dimethylamino-methyl-6-[4-(methylthio)phenyl]-2H-pyridazin-3-one hydrochloride]: 230.2 to 232.3 °C; `CSc1ccc(-c2cc(CN(C)C)c(=O)n(CC(C)C)n2)cc1.Cl` [Example 161, 4-dimethylaminomethyl-2-isobutyl-6-[4-(methylthio)phenyl]-2H-pyridazin-3-one hydrochloride]: 216.8 to 218.4 °C.
`C#CCNCc1cc(-c2ccc(SC)cc2)nn(CC(C)C)c1=O.Cl` [Example 163, 2-isobutyl-6-[4-(methylthio)phenyl]-4-propargylaminomethyl-2H-pyridazin-3-one hydrochloride] returned a melting point of 197.5 to 198.4 °C.
Take `COc1ccc(-c2cc(CN3CCN(C)CC3)c(=O)n(Cc3ccc(F)cc3)n2)cc1F` [Example 189, 2-(4-fluorobenzyl)-6-(3-fluoro-4-methoxyphenyl)-4-(4-methyl-1-piperazinyl)methyl-2H-pyridazin-3-one]: the melting point was in the range of 112 to 113 °C.
As to `COc1ccc(-c2cc(CN(C)C)c(=O)n(Cc3ccc(F)cc3)n2)cc1F` [Example 190, 4-dimethylaminomethyl-2-(4-fluorobenzyl)-6-(3-fluoro-4-methoxyphenyl)-2H-pyridazin-3-one], the melting point fell in the range of 127 to 129 °C.
Take `COc1ccc(-c2cc(CN3CCNCC3)c(=O)n(Cc3ccc(F)cc3)n2)cc1F` [Example 192, 2-(4-fluorobenzyl)-6-(3-fluoro-4-methoxyphenyl)-4-(1-piperazinyl)methyl-2H-pyridazin-3-one]: the melting point is 142 to 143 °C.
Same read-out and setting: next, `COc1ccc(-c2cc(CN)c(=O)n(Cc3ccc(F)cc3)n2)cc1F` [Example 194, 4-aminomethyl-2-(4-fluorobenzyl)-6-(3-fluoro-4-methoxyphenyl)-2H-pyridazin-3-one]: 145 to 149 °C; `COc1ccc(-c2cc(CN(C)C)c(=O)n(CCCc3ccc(F)cc3)n2)cc1F` [Example 197, 4-dimethylaminomethyl-6-(3-fluoro-4-methoxyphenyl)-2-[3-(4-fluorophenyl)propyl]-2H-pyridazin-3-one]: 97 to 100 °C.
Still for that read-out and setting: next, `COc1ccc(-c2cc(CN)c(=O)n(CCCc3ccc(F)cc3)n2)cc1F` [Example 200, 4-aminomethyl-6-(3-fluoro-4-methoxyphenyl)-2-[3-(4-fluorophenyl)propyl]-2H-pyridazin-3-one]: 82 to 84 °C; `COc1ccc(-c2cc(CN(C)C)c(=O)n(Cc3ccc(Cl)cc3)n2)cc1F` [Example 203, 2-(4-chlorobenzyl)-4-dimethylaminomethyl-6-(3-fluoro-4-methoxyphenyl)-2H-pyridazin-3-one]: 95.3 to 96.7 °C.
Still for that read-out and setting: next, `COc1ccc(-c2cc(CN)c(=O)n(Cc3ccc(Cl)cc3)n2)cc1F` [Example 205, 4-aminomethyl-2-(4-chlorobenzyl)-6-(3-fluoro-4-methoxyphenyl)-2H-pyridazin-3-one]: 128.5 to 131.4 °C; `COc1ccc(-c2cc(CN3CCN(C)CC3)c(=O)n(Cc3ccc(F)c(F)c3)n2)cc1F` [Example 207, 2-(3,4-difluorobenzyl)-6-(3-fluoro-4-methoxyphenyl)-4-(4-methyl-1-piperazinyl)methyl-2H-pyridazin-3-one]: 135.4 to 136 °C.
`Cc1cc(-c2cc(CN3CCN(C)CC3)c(=O)n(Cc3ccccc3Cl)n2)ccc1F` [Example 224, 2-(2-chlorobenzyl)-6-(4-fluoro-3-methylphenyl)-4-(4-methyl-1-piperazinyl)methyl-2H-pyridazin-3-one] registered a melting point of 149.7 to 150.9 °C.
Still for that read-out and setting: next, `Cc1cc(-c2cc(CN)c(=O)n(Cc3ccccc3Cl)n2)ccc1F` [Example 237, 4-aminomethyl-2-(2-chlorobenzyl)-6-(4-fluoro-3-methylphenyl)-2H-pyridazin-3-one]: 97.6 to 102.2 °C.
On the same count and under the same terms, next, `COc1ccc(-c2cc(CCCN3CCN(C)CC3)c(=O)n(Cc3ccc(F)cc3)n2)cc1F` [Example 239, 2-(4-fluorobenzyl)-6-(3-fluoro-4-methoxyphenyl)-4-[3-(4-methyl-1-piperazinyl)propyl]-2H-pyridazin-3-one]: 108 to 109 °C.
